Values quoted from earlier work as cited in patent publication US7012060B1, “TNF receptor and steroid hormone in a combined therapy” (priority 1995, dated 2006).

Experiments:
[1] = tested on: coxsackievirus B4; settings: cited from earlier work
[2] = tested on: TNF-α; settings: both in vivo and in vitro; cited from earlier work
[3] = tested on: herpes virus type 2; settings: cited from earlier work

C[C@]12CC[C@H](O)CC1=CC[C@@H]1[C@@H]2CC[C@]2(C)C(=O)CC[C@@H]12 [DHEA, Dehydroepiandrosterone]
systemic resistance against lethal viral infections [1]: regulates the systemic resistance | TNF-α levels after LPS administration [2]: significantly blocked | systemic resistance against lethal viral infections [3]: regulates the systemic resistance
